Here are results for six compounds from US6498125B2, “Pyridine ketones useful as herbicides” (Syngenta Participations AG, priority 1998, dated 2002).

The first test deals with Monocotyledonous and dicotyledonous test plants. In words: Example B1: pre-emergence herbicidal action, 2 kg of AS/ha. In kind it is in vivo. The following applies: test plant Avena, 3 weeks, scale 1-9. The method, then:
Monocotyledonous and dicotyledonous test plants are sown in standard soil in plastic pots. Immediately after sowing, the test substances are sprayed on (500 l of water/ha) as an aqueous suspension (prepared from a 25% wettable powder (Example F3, b) according to WO 97/34485) or emulsion (prepared from a 25% emulsion concentrate (Example F1, c)), corresponding to a dosage of 2 kg of AS/ha. The test plants are then grown under optimum conditions in a greenhouse. After a test period of 3 weeks, the test is evaluated with a nine-level scale of ratings (1=complete damage, 9=no effect). Ratings of 1 to 4 (in particular 1 to 3) mean good to very good herbicidal action.
Regarding `COCc1nc(C(F)(F)F)ccc1C(=O)C1=C(O)C2CCC(C2)C1=O` (stereo not drawn) [Compound 1.021], the “pre-emergence action rating, Avena” value is 4.
On to `COCCc1nc(C(F)(F)F)ccc1C(=O)C1=C(O)C2CCC(C2)C1=O` (stereo not drawn) [Compound 1.023], for which the “pre-emergence action rating, Avena” value came to 2.
Turning to `CCN(CC)C(=O)OC1=C(C(=O)c2ccc(C(F)(F)F)nc2C)C(=O)C2CCC1C2` (stereo not drawn) [Compound 1.41], the “pre-emergence action rating, Avena” value came out at 2.
Consider `O=C(C1=C(O)C2CCC(C2)C1=O)c1ccc(C(F)(F)F)nc1C1CC1` (stereo not drawn) [Compound 1.042], for which the “pre-emergence action rating, Avena” value amounted to 4.
For the compound `COc1nc(C(F)(F)F)ccc1C(=O)C1=C(O)C2CCC(C2)C1=O` (stereo not drawn) [Compound 1.043], the “pre-emergence action rating, Avena” value was 4.
Take `Cc1nc(C(F)(F)C(F)(F)F)ccc1C(=O)C1=C(O)C2CCC(C2)C1=O` (stereo not drawn) [Compound 1.109]: the “pre-emergence action rating, Avena” value is 2.

The same test, now with this note: test plant Cyperus, 3 weeks, scale 1-9.
Turning to `COCc1nc(C(F)(F)F)ccc1C(=O)C1=C(O)C2CCC(C2)C1=O` (stereo not drawn) [Compound 1.021], the “pre-emergence action rating, Cyperus” value is recorded as 2.
Same read-out and setting: the same measure for `COCCc1nc(C(F)(F)F)ccc1C(=O)C1=C(O)C2CCC(C2)C1=O` (stereo not drawn) [Compound 1.023]: 2; for `CCN(CC)C(=O)OC1=C(C(=O)c2ccc(C(F)(F)F)nc2C)C(=O)C2CCC1C2` (stereo not drawn) [Compound 1.41]: 1; for `O=C(C1=C(O)C2CCC(C2)C1=O)c1ccc(C(F)(F)F)nc1C1CC1` (stereo not drawn) [Compound 1.042]: 2.
The same measure, in the same setting: under `COc1nc(C(F)(F)F)ccc1C(=O)C1=C(O)C2CCC(C2)C1=O` (stereo not drawn) [Compound 1.043] stands 2; under `Cc1nc(C(F)(F)C(F)(F)F)ccc1C(=O)C1=C(O)C2CCC(C2)C1=O` (stereo not drawn) [Compound 1.109], 2.

Staying with this test, now noted: test plant Setaria, 3 weeks, scale 1-9.
Consider `COCc1nc(C(F)(F)F)ccc1C(=O)C1=C(O)C2CCC(C2)C1=O` (stereo not drawn) [Compound 1.021], for which the “pre-emergence action rating, Setaria” value amounted to 1.
On to `COCCc1nc(C(F)(F)F)ccc1C(=O)C1=C(O)C2CCC(C2)C1=O` (stereo not drawn) [Compound 1.023], for which the “pre-emergence action rating, Setaria” value is 2.
As to `CCN(CC)C(=O)OC1=C(C(=O)c2ccc(C(F)(F)F)nc2C)C(=O)C2CCC1C2` (stereo not drawn) [Compound 1.41], the “pre-emergence action rating, Setaria” value came out at 1.
Take `O=C(C1=C(O)C2CCC(C2)C1=O)c1ccc(C(F)(F)F)nc1C1CC1` (stereo not drawn) [Compound 1.042]: the “pre-emergence action rating, Setaria” value was determined as 2.
Turning to `COc1nc(C(F)(F)F)ccc1C(=O)C1=C(O)C2CCC(C2)C1=O` (stereo not drawn) [Compound 1.043], the “pre-emergence action rating, Setaria” value is recorded as 1.
For the compound `Cc1nc(C(F)(F)C(F)(F)F)ccc1C(=O)C1=C(O)C2CCC(C2)C1=O` (stereo not drawn) [Compound 1.109], the “pre-emergence action rating, Setaria” value is 2.

Still in this test, the particulars now being: test plant Sinapis, 3 weeks, scale 1-9.
Regarding `COCc1nc(C(F)(F)F)ccc1C(=O)C1=C(O)C2CCC(C2)C1=O` (stereo not drawn) [Compound 1.021], the “pre-emergence action rating, Sinapis” value came out at 1.
As for `COCCc1nc(C(F)(F)F)ccc1C(=O)C1=C(O)C2CCC(C2)C1=O` (stereo not drawn) [Compound 1.023], the “pre-emergence action rating, Sinapis” value was 1.
As for `CCN(CC)C(=O)OC1=C(C(=O)c2ccc(C(F)(F)F)nc2C)C(=O)C2CCC1C2` (stereo not drawn) [Compound 1.41], the “pre-emergence action rating, Sinapis” value came to 1.
For the compound `O=C(C1=C(O)C2CCC(C2)C1=O)c1ccc(C(F)(F)F)nc1C1CC1` (stereo not drawn) [Compound 1.042], the “pre-emergence action rating, Sinapis” value is recorded as 1.
For `COc1nc(C(F)(F)F)ccc1C(=O)C1=C(O)C2CCC(C2)C1=O` (stereo not drawn) [Compound 1.043], the “pre-emergence action rating, Sinapis” value was found to be 2.
With `Cc1nc(C(F)(F)C(F)(F)F)ccc1C(=O)C1=C(O)C2CCC(C2)C1=O` (stereo not drawn) [Compound 1.109], the “pre-emergence action rating, Sinapis” value amounted to 2.

Still in this test, the particulars now being: test plant Solanum, 3 weeks, scale 1-9.
As for `COCc1nc(C(F)(F)F)ccc1C(=O)C1=C(O)C2CCC(C2)C1=O` (stereo not drawn) [Compound 1.021], the “pre-emergence action rating, Solanum” value is given as 1.
On to `COCCc1nc(C(F)(F)F)ccc1C(=O)C1=C(O)C2CCC(C2)C1=O` (stereo not drawn) [Compound 1.023], for which the “pre-emergence action rating, Solanum” value is 1.
Consider `CCN(CC)C(=O)OC1=C(C(=O)c2ccc(C(F)(F)F)nc2C)C(=O)C2CCC1C2` (stereo not drawn) [Compound 1.41], for which the “pre-emergence action rating, Solanum” value came out at 1.
Turning to `O=C(C1=C(O)C2CCC(C2)C1=O)c1ccc(C(F)(F)F)nc1C1CC1` (stereo not drawn) [Compound 1.042], the “pre-emergence action rating, Solanum” value is 1.
Same read-out and setting: under `COc1nc(C(F)(F)F)ccc1C(=O)C1=C(O)C2CCC(C2)C1=O` (stereo not drawn) [Compound 1.043] stands 1; under `Cc1nc(C(F)(F)C(F)(F)F)ccc1C(=O)C1=C(O)C2CCC(C2)C1=O` (stereo not drawn) [Compound 1.109], 1.

Still in this test, the particulars now being: test plant Stellaria, 3 weeks, scale 1-9.
For `COCc1nc(C(F)(F)F)ccc1C(=O)C1=C(O)C2CCC(C2)C1=O` (stereo not drawn) [Compound 1.021], the “pre-emergence action rating, Stellaria” value was 3.
Same read-out and setting: under `COCCc1nc(C(F)(F)F)ccc1C(=O)C1=C(O)C2CCC(C2)C1=O` (stereo not drawn) [Compound 1.023] stands 2; under `CCN(CC)C(=O)OC1=C(C(=O)c2ccc(C(F)(F)F)nc2C)C(=O)C2CCC1C2` (stereo not drawn) [Compound 1.41], 1.
For the compound `O=C(C1=C(O)C2CCC(C2)C1=O)c1ccc(C(F)(F)F)nc1C1CC1` (stereo not drawn) [Compound 1.042], the “pre-emergence action rating, Stellaria” value amounted to 4.
Same read-out and setting: under `COc1nc(C(F)(F)F)ccc1C(=O)C1=C(O)C2CCC(C2)C1=O` (stereo not drawn) [Compound 1.043] stands 2; under `Cc1nc(C(F)(F)C(F)(F)F)ccc1C(=O)C1=C(O)C2CCC(C2)C1=O` (stereo not drawn) [Compound 1.109], 3.

Another test shares this test system. Put plainly: Example B2: post-emergence herbicidal action, 2 kg of AS/ha. In kind it is in vivo. Conditions: test plant Avena, 4- to 6-leaf stage, about 18 days, scale 1-9. Details: key: 1 = complete damage, 9 = no effect. The method, then:
Monocotyledonous and dicotyledonous test plants are grown in plastic pots with standard soil in a greenhouse and, in the 4- to 6-leaf stage, are sprayed with an aqueous suspension of the test substances of the formula 1, prepared from a 25% wettable powder (Example F3, b) according to WO 97134485) or with an emulsion of the test substances of the formula I, prepared from a 25% emulsion concentrate (Example F1, c) according to WO 97/34485), corresponding to a dosage of 2 kg of AS/ha (500 l of water/ha). The test plants are then grown further under optimum conditions in a greenhouse. After a test period of about 18 days, the test is evaluated with a nine-level scale of rating (1=complete damage, 9=no effect). Ratings of 1 to 4 (in particular 1 to 3) mean good to very good herbicidal action. In this test, the compounds of the formula I show strong herbicidal action.
Turning to `COCc1nc(C(F)(F)F)ccc1C(=O)C1=C(O)C2CCC(C2)C1=O` (stereo not drawn) [Compound 1.021], the “post-emergence action rating, Avena” value was determined as 2.
On to `COCCc1nc(C(F)(F)F)ccc1C(=O)C1=C(O)C2CCC(C2)C1=O` (stereo not drawn) [Compound 1.023], for which the “post-emergence action rating, Avena” value stood at 2.
The same measure, in the same setting: under `CCN(CC)C(=O)OC1=C(C(=O)c2ccc(C(F)(F)F)nc2C)C(=O)C2CCC1C2` (stereo not drawn) [Compound 1.41] stands 1; under `O=C(C1=C(O)C2CCC(C2)C1=O)c1ccc(C(F)(F)F)nc1C1CC1` (stereo not drawn) [Compound 1.042], 2; under `COc1nc(C(F)(F)F)ccc1C(=O)C1=C(O)C2CCC(C2)C1=O` (stereo not drawn) [Compound 1.043], 2.
Turning to `Cc1nc(C(F)(F)C(F)(F)F)ccc1C(=O)C1=C(O)C2CCC(C2)C1=O` (stereo not drawn) [Compound 1.109], the “post-emergence action rating, Avena” value stood at 2.

Still in this test, the particulars now being: test plant Setaria, 4- to 6-leaf stage, about 18 days, scale 1-9.
Take `COCc1nc(C(F)(F)F)ccc1C(=O)C1=C(O)C2CCC(C2)C1=O` (stereo not drawn) [Compound 1.021]: the “post-emergence action rating, Setaria” value was determined as 4.
With `COCCc1nc(C(F)(F)F)ccc1C(=O)C1=C(O)C2CCC(C2)C1=O` (stereo not drawn) [Compound 1.023], the “post-emergence action rating, Setaria” value turned out to be 2.
On to `CCN(CC)C(=O)OC1=C(C(=O)c2ccc(C(F)(F)F)nc2C)C(=O)C2CCC1C2` (stereo not drawn) [Compound 1.41], for which the “post-emergence action rating, Setaria” value was 1.
Turning to `O=C(C1=C(O)C2CCC(C2)C1=O)c1ccc(C(F)(F)F)nc1C1CC1` (stereo not drawn) [Compound 1.042], the “post-emergence action rating, Setaria” value came to 2.
On to `COc1nc(C(F)(F)F)ccc1C(=O)C1=C(O)C2CCC(C2)C1=O` (stereo not drawn) [Compound 1.043], for which the “post-emergence action rating, Setaria” value is on record as 2.
`Cc1nc(C(F)(F)C(F)(F)F)ccc1C(=O)C1=C(O)C2CCC(C2)C1=O` (stereo not drawn) [Compound 1.109]: the “post-emergence action rating, Setaria” value is recorded as 2.

The test is the same for the next values; noted with them: test plant Sinapis, 4- to 6-leaf stage, about 18 days, scale 1-9.
Regarding `COCc1nc(C(F)(F)F)ccc1C(=O)C1=C(O)C2CCC(C2)C1=O` (stereo not drawn) [Compound 1.021], the “post-emergence action rating, Sinapis” value is given as 1.
The same measure, in the same setting: under `COCCc1nc(C(F)(F)F)ccc1C(=O)C1=C(O)C2CCC(C2)C1=O` (stereo not drawn) [Compound 1.023] stands 1; under `CCN(CC)C(=O)OC1=C(C(=O)c2ccc(C(F)(F)F)nc2C)C(=O)C2CCC1C2` (stereo not drawn) [Compound 1.41], 1; under `O=C(C1=C(O)C2CCC(C2)C1=O)c1ccc(C(F)(F)F)nc1C1CC1` (stereo not drawn) [Compound 1.042], 1.
Turning to `COc1nc(C(F)(F)F)ccc1C(=O)C1=C(O)C2CCC(C2)C1=O` (stereo not drawn) [Compound 1.043], the “post-emergence action rating, Sinapis” value worked out at 1.
Regarding `Cc1nc(C(F)(F)C(F)(F)F)ccc1C(=O)C1=C(O)C2CCC(C2)C1=O` (stereo not drawn) [Compound 1.109], the “post-emergence action rating, Sinapis” value is 1.

Still in this test, the particulars now being: test plant Solanum, 4- to 6-leaf stage, about 18 days, scale 1-9.
Consider `COCc1nc(C(F)(F)F)ccc1C(=O)C1=C(O)C2CCC(C2)C1=O` (stereo not drawn) [Compound 1.021], for which the “post-emergence action rating, Solanum” value was 2.
Regarding `COCCc1nc(C(F)(F)F)ccc1C(=O)C1=C(O)C2CCC(C2)C1=O` (stereo not drawn) [Compound 1.023], the “post-emergence action rating, Solanum” value is given as 2.
For the compound `CCN(CC)C(=O)OC1=C(C(=O)c2ccc(C(F)(F)F)nc2C)C(=O)C2CCC1C2` (stereo not drawn) [Compound 1.41], the “post-emergence action rating, Solanum” value was found to be 1.
Still for that read-out and setting: under `O=C(C1=C(O)C2CCC(C2)C1=O)c1ccc(C(F)(F)F)nc1C1CC1` (stereo not drawn) [Compound 1.042] stands 2; under `COc1nc(C(F)(F)F)ccc1C(=O)C1=C(O)C2CCC(C2)C1=O` (stereo not drawn) [Compound 1.043], 2.
As to `Cc1nc(C(F)(F)C(F)(F)F)ccc1C(=O)C1=C(O)C2CCC(C2)C1=O` (stereo not drawn) [Compound 1.109], the “post-emergence action rating, Solanum” value worked out at 2.

Staying with this test, now noted: test plant Stellaria, 4- to 6-leaf stage, about 18 days, scale 1-9.
In the case of `COCc1nc(C(F)(F)F)ccc1C(=O)C1=C(O)C2CCC(C2)C1=O` (stereo not drawn) [Compound 1.021], the “post-emergence action rating, Stellaria” value was determined as 2.
In the case of `COCCc1nc(C(F)(F)F)ccc1C(=O)C1=C(O)C2CCC(C2)C1=O` (stereo not drawn) [Compound 1.023], the “post-emergence action rating, Stellaria” value was 2.
Turning to `CCN(CC)C(=O)OC1=C(C(=O)c2ccc(C(F)(F)F)nc2C)C(=O)C2CCC1C2` (stereo not drawn) [Compound 1.41], the “post-emergence action rating, Stellaria” value amounted to 1.
As for `O=C(C1=C(O)C2CCC(C2)C1=O)c1ccc(C(F)(F)F)nc1C1CC1` (stereo not drawn) [Compound 1.042], the “post-emergence action rating, Stellaria” value was 2.
As for `COc1nc(C(F)(F)F)ccc1C(=O)C1=C(O)C2CCC(C2)C1=O` (stereo not drawn) [Compound 1.043], the “post-emergence action rating, Stellaria” value was found to be 2.
With `Cc1nc(C(F)(F)C(F)(F)F)ccc1C(=O)C1=C(O)C2CCC(C2)C1=O` (stereo not drawn) [Compound 1.109], the “post-emergence action rating, Stellaria” value was 2.
